Test results: patent US11034715B2, “Ectonucleotidase inhibitors and methods of use thereof” (Calithera Biosciences, Inc., priority 2016, dated 2021)
pIC50: −log10 of the molar value.

Molecular target: recombinant CD73 (Homo sapiens (Human), UniProt P21589)
Assay: Inhibition of the CD73 enzyme in vitro (soluble recombinant CD73, AMP, Malachite Green)
Assay type: biochemical
Conditions: recombinant CD73 0.5 nM, AMP 50 μM, 30 minutes at room temperature
Protocol: The concentration of inorganic phosphate was determined using a phosphate standard curve.

Chain of recombinant CD73 (P21589 27-547): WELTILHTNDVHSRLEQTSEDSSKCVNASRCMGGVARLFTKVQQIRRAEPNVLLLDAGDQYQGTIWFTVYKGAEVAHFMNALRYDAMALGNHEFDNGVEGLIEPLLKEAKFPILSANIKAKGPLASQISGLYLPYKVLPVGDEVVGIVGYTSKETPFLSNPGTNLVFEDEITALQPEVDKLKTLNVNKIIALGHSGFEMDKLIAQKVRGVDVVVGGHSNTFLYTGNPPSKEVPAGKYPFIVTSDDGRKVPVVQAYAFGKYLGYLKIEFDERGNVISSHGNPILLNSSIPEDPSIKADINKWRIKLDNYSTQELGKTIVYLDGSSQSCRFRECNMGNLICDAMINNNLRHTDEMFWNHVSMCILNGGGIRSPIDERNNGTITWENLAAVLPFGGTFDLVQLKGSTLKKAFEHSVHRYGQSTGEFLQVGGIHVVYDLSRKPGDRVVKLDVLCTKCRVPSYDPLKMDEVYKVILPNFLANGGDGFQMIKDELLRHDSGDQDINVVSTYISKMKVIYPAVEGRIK

Compared with CCOC(=O)C(Cc1ccc(OC(F)(F)F)cc1)(OC[C@H]1O[C@@H](n2cnc3c(N)nc(Cl)nc32)[C@@H](F)[C@@H]1O)C(=O)O (single isomer, unassigned) [compound 38], Nc1nc(Cl)nc2c1ncn2[C@@H]1O[C@H](COC(Cc2ccc(O)cc2)(C(=O)O)C(=O)O)[C@@H](O)[C@@H]1F [compound 66, 2-(((2R,3R,4S,5R)-5-(6-amino-2-chloro-9H-purin-9-yl)-4-fluoro-3-hydroxytetrahydrofuran-2-yl)methoxy)-2-(4-hydroxybenzyl) malonic acid] is 0.72 log units higher in pIC50: 6.16 for the first, 6.88 for the second. The second is the more potent here.

Going from Nc1nc(Cl)nc2c1ncn2[C@@H]1O[C@H](COC(Cc2cccc(Oc3ccccc3)c2)(C(=O)O)C(=O)O)[C@@H](O)[C@@H]1F [compound 13, 2-(((2R,3R,4S,5R)-5-(6-amino-2-chloro-9H-purin-9-yl)-4-fluoro-3-hydroxytetrahydrofuran-2-yl)methoxy)-2-(3-phenoxybenzyl)malonic acid] to Nc1nc(Cl)nc2c1ncn2[C@@H]1O[C@H](COC(Cc2ccc3ccccc3c2)(C(=O)O)C(=O)O)[C@@H](O)[C@@H]1F [compound 17, 2-(((2R,3R,4S,5R)-5-(6-amino-2-chloro-9H-purin-9-yl)-4-fluoro-3-hydroxytetrahydrofuran-2-yl)methoxy)-2-(naphthalen-2-ylmethyl)malonic acid], the pIC50 falls from 6.39 to 6.16 (0.23 log units). The first is the more potent here.

Nc1nc(Cl)nc2c1ncn2[C@@H]1O[C@H](COC(Cc2cccc(C(F)(F)F)c2)(C(=O)O)C(=O)O)[C@@H](O)[C@@H]1F [compound 16, 2-(((2R,3R,4S,5R)-5-(6-amino-2-chloro-9H-purin-9-yl)-4-fluoro-3-hydroxytetrahydrofuran-2-yl)methoxy)-2-(3-(trifluoromethyl)benzyl)malonic acid] and Nc1nc(Cl)nc2c1ncn2[C@@H]1O[C@H](COC(Cc2cccc(O)c2)(C(=O)O)C(=O)O)[C@@H](O)[C@@H]1F [compound 56, 2-(((2R,3R,4S,5R)-5-(6-amino-2-chloro-9H-purin-9-yl)-4-fluoro-3-hydroxytetrahydrofuran-2-yl)methoxy)-2-(3-hydroxybenzyl)malonic acid] are within 0.2 log units of each other in pIC50: 6.59 for the first, 6.77 for the second.

Compared with CS(=O)(=O)c1ccc(CC(OC[C@H]2O[C@@H](n3cnc4c(N)nc(Cl)nc43)[C@@H](F)[C@@H]2O)(C(=O)O)C(=O)O)cc1 [compound 21, 2-(((2R,3R,4S,5R)-5-(6-amino-2-chloro-9H-purin-9-yl)-4-fluoro-3-hydroxytetrahydrofuran-2-yl)methoxy)-2-(4-(methylsulfonyl)benzyl) malonic acid], Nc1nc(Cl)nc2c1ncn2[C@@H]1O[C@H](COC(Cc2ccc(CC(=O)O)cc2)(C(=O)O)C(=O)O)[C@@H](O)[C@@H]1F [compound 78, 2-(((2R,3R,4S,5R)-5-(6-amino-2-chloro-9H-purin-9-yl)-4-fluoro-3-hydroxytetrahydrofuran-2-yl)methoxy)-2-(4-(carboxymethyl)benzyl) malonic acid] is 0.36 log units higher in pIC50: 6.71 for the first, 7.07 for the second. The second is the more potent here.

Going from O=C(O)C(Cc1ccccc1)(OC[C@H]1O[C@@H](n2cnc3c(NCc4ccccc4)nc(Cl)nc32)[C@@H](F)[C@@H]1O)C(=O)O [compound 28, 2-benzyl-2-(((2R,3R,4S,5R)-5-(6-(benzylamino)-2-chloro-9H-purin-9-yl)-4-fluoro-3-hydroxytetrahydrofuran-2-yl)methoxy)malonic acid] to Nc1nc(Cl)nc2c1ncn2[C@@H]1O[C@H](COC(Cc2ccc(OCc3ccccc3)cc2)(C(=O)O)C(=O)O)[C@@H](O)[C@@H]1F [compound 65, 2-(((2R,3R,4S,5R)-5-(6-amino-2-chloro-9H-purin-9-yl)-4-fluoro-3-hydroxytetrahydrofuran-2-yl)methoxy)-2-(4-(benzyloxy)benzyl)malonic acid], the pIC50 rises from 5.58 to 7.51 (1.93 log units). The second is the more potent here.

First: Nc1nc(Cl)nc2c1ncn2[C@@H]1O[C@H](COC(Cc2nnn[nH]2)(C(=O)O)C(=O)O)[C@@H](O)[C@@H]1F [compound 50, 2-((1H-tetrazol-5-yl)methyl)-2-(((2R,3R,4S,5R)-5-(6-amino-2-chloro-9H-purin-9-yl)-4-fluoro-3-hydroxytetrahydrofuran-2-yl)methoxy)malonic acid]
Second: Nc1nc(Cl)nc2c1ncn2[C@@H]1O[C@H](COC(Cc2cccc(-c3nnn[nH]3)c2)(C(=O)O)C(=O)O)[C@@H](O)[C@@H]1F [compound 53, 2-(3-(1H-tetrazol-5-yl)benzyl)-2-(((2R,3R,4S,5R)-5-(6-amino-2-chloro-9H-purin-9-yl)-4-fluoro-3-hydroxytetrahydrofuran-2-yl)methoxy)malonic acid]
The pIC50 of the first is 0.63 log units lower: 5.72 for the first, 6.35 for the second. The second is the more potent here.

Nc1nc(Cl)nc2c1ncn2[C@@H]1O[C@H](COC(Cc2ccccc2)(C(=O)O)C(=O)O)[C@@H](N)[C@H]1O [compound 51, 2-(((2S,3S,4R,5R)-3-amino-5-(6-amino-2-chloro-9H-purin-9-yl)-4-hydroxytetrahydrofuran-2-yl)methoxy)-2-benzylmalonic acid] and Nc1nc(Cl)nc2c1ncn2[C@@H]1O[C@H](COC(Cc2cnn(Cc3ccccc3)c2)(C(=O)O)C(=O)O)[C@@H](O)[C@@H]1F [compound 63, 2-(((2R,3R,4S,5R)-5-(6-amino-2-chloro-9H-purin-9-yl)-4-fluoro-3-hydroxytetrahydro-furan-2-yl)methoxy)-2-((1-benzyl-1H-pyrazol-4-yl)methyl)malonic acid] are within 0.2 log units of each other in pIC50: 5.73 for the first, 5.91 for the second.

First: Nc1nc(Cl)nc2c1ncn2[C@@H]1O[C@H](COC(Cc2ccc(-c3nnn[nH]3)cc2)(C(=O)O)C(=O)O)[C@@H](O)[C@@H]1F [compound 54, 2-(4-(1H-tetrazol-5-yl)benzyl)-2-(((2R,3R,4S,5R)-5-(6-amino-2-chloro-9H-purin-9-yl)-4-fluoro-3-hydroxytetrahydro-furan-2-yl)methoxy)malonic acid]
Second: Nc1nc(Cl)nc2c1ncn2[C@@H]1O[C@H](COC(Cc2cn[nH]c2)(C(=O)O)C(=O)O)[C@@H](O)[C@@H]1F [compound 64, 2-((1H-pyrazol-4-yl)methyl)-2-(((2R,3R,4S,5R)-5-(6-amino-2-chloro-9H-purin-9-yl)-4-fluoro-3-hydroxytetrahydrofuran-2-yl)methoxy)malonic acid]
The pIC50 of the first is 0.59 log units higher: 6.66 for the first, 6.07 for the second. The first is the more potent here.

First: Nc1nc(Cl)nc2c1ncn2[C@@H]1O[C@H](COC(Cc2ccc(C(=O)O)cc2F)(C(=O)O)C(=O)O)[C@@H](O)[C@@H]1F [compound 57, 2-(((2R,3R,4S,5R)-5-(6-amino-2-chloro-9H-purin-9-yl)-4-fluoro-3-hydroxytetrahydrofuran-2-yl)methoxy)-2-(4-carboxy-2-fluorobenzyl)malonic acid]
Second: Nc1nc(Cl)nc2c1ncn2[C@@H]1O[C@H](COC(Cc2ccc(Cl)cc2F)(C(=O)O)C(=O)O)[C@@H](O)[C@@H]1F [compound 80, 2-(((2R,3R,4S,5R)-5-(6-amino-2-chloro-9H-purin-9-yl)-4-fluoro-3-hydroxytetrahydrofuran-2-yl)methoxy)-2-(4-chloro-2-fluorobenzyl)malonic acid]
The pIC50 of the first is 0.51 log units lower: 6.85 for the first, 7.36 for the second.

Nc1nc(Cl)nc2c1ncn2[C@@H]1O[C@H](COC(Cc2ccc(C(=O)O)c(F)c2)(C(=O)O)C(=O)O)[C@@H](O)[C@@H]1F [compound 58, 2-(((2R,3R,4S,5R)-5-(6-amino-2-chloro-9H-purin-9-yl)-4-fluoro-3-hydroxytetrahydro-furan-2-yl)methoxy)-2-(4-carboxy-3-fluorobenzyl)malonic acid] and Nc1nc(Cl)nc2c1ncn2[C@@H]1O[C@H](COC(Cc2ccc(C(F)(F)F)c(F)c2)(C(=O)O)C(=O)O)[C@@H](O)[C@@H]1F [compound 60, 2-(((2R,3R,4S,5R)-5-(6-amino-2-chloro-9H-purin-9-yl)-4-fluoro-3-hydroxytetrahydro-furan-2-yl)methoxy)-2-(3-fluoro-4-(trifluoromethyl)benzyl) malonic acid] are within 0.2 log units of each other in pIC50: 7.42 for the first, 7.29 for the second.

Going from Nc1nc(Cl)nc2c1ncn2[C@@H]1O[C@H](COC(Cc2ccc(C(F)(F)F)o2)(C(=O)O)C(=O)O)[C@@H](O)[C@@H]1F [compound 59, 2-(((2R,3R,4S,5R)-5-(6-amino-2-chloro-9H-purin-9-yl)-4-fluoro-3-hydroxytetrahydro-furan-2-yl)methoxy)-2-((5-(trifluoromethyl)-furan-2-yl)methyl)malonic acid] to Nc1nc(Cl)nc2c1ncn2[C@@H]1O[C@H](COC(Cc2ccc(C(=O)O)s2)(C(=O)O)C(=O)O)[C@@H](O)[C@@H]1F [compound 77, 2-(((2R,3R,4S,5R)-5-(6-amino-2-chloro-9H-purin-9-yl)-4-fluoro-3-hydroxytetrahydro-furan-2-yl)methoxy)-2-((5-carboxythiophen-2-yl)methyl)malonic acid], the pIC50 rises from 6.36 to 6.59 (0.23 log units). The second is the more potent here.

Going from Nc1nc(Cl)nc2c1ncn2[C@@H]1O[C@H](COC(Cc2cc(-c3ccccc3)no2)(C(=O)O)C(=O)O)[C@@H](O)[C@@H]1F [compound 61, 2-(((2R,3R,4S,5R)-5-(6-amino-2-chloro-9H-purin-9-yl)-4-fluoro-3-hydroxytetrahydrofuran-2-yl)methoxy)-2-((3-phenylisoxazol-5-yl)methyl)malonic acid] to Nc1nc(Cl)nc2c1ncn2[C@@H]1O[C@H](COC(Cc2cc(C(=O)O)no2)(C(=O)O)C(=O)O)[C@@H](O)[C@@H]1F [compound 83, 2-(((2R,3R,4S,5R)-5-(6-amino-2-chloro-9H-purin-9-yl)-4-fluoro-3-hydroxytetrahydrofuran-2-yl)methoxy)-2-((3-carboxyisoxazol-5-yl)methyl)malonic acid], the pIC50 falls from 5.65 to 5.19 (0.46 log units). The first is the more potent here.

Compared with Nc1nc(Cl)nc2c1ncn2[C@@H]1O[C@H](COC(Cc2csc(C(=O)O)n2)(C(=O)O)C(=O)O)[C@@H](O)[C@@H]1F [compound 68, 2-(((2R,3R,4S,5R)-5-(6-amino-2-chloro-9H-purin-9-yl)-4-fluoro-3-hydroxytetrahydro-furan-2-yl)methoxy)-2-((2-carboxythiazol-4-yl)methyl)malonic acid], Nc1nc(Cl)nc2c1ncn2[C@@H]1O[C@H](COC(Cc2csc(C(=O)O)c2)(C(=O)O)C(=O)O)[C@@H](O)[C@@H]1F [compound 76, 2-(((2R,3R,4S,5R)-5-(6-amino-2-chloro-9H-purin-9-yl)-4-fluoro-3-hydroxytetrahydro-furan-2-yl)methoxy)-2-((5-carboxythiophen-3-yl)methyl)malonic acid] is 0.64 log units higher in pIC50: 6.49 for the first, 7.13 for the second.

Same assay, conditions: recombinant CD73 0.5 nM, AMP 50 μM; class symbols (Table 4)

CCOC(=O)C(Cc1ccccc1)(OC[C@H]1O[C@@H](n2cnc3c(NCc4ccccc4)nc(Cl)nc32)[C@H](O)[C@@H]1O)C(=O)OCC gave a pIC50 of over 6.00.
